Measurements from ChEMBL document CHEMBL1201862, “PubChem BioAssay data set” (2004).
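Dose response: 5 concentrations. Exposure: 48 h. Format: 96-well plates. Endpoint: linear interpolation; highest concentration if not reached. The concentration for 50% growth inhibition is given as GI50.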 Active and inactive are the calls of the source. No stated cut-off is given here; in the data, active = GI50 up to about 1.1 µM and inactive = higher.

Experiments:
Assay in all cases: NCI anticancer screen, dose series, 48 h
[1] = tested on: M14
[2] = tested on: NCI-H23
[3] = tested on: HCT-15
[4] = tested on: HCC 2998
[5] = tested on: SF-268
[6] = tested on: HCT-116
[7] = tested on: NCI-H226
[8] = tested on: SNB-19
[9] = tested on: CAKI-1
[10] = tested on: Malme-3M
[11] = tested on: SF-539
[12] = tested on: ACHN
[13] = tested on: RPMI-8226
[14] = tested on: NCI-H460
[15] = tested on: IGROV-1
[16] = tested on: A498
[17] = tested on: OVCAR-4
[18] = tested on: HOP-92

| Compound | GI50 [1] | GI50 [2] | GI50 [3] [µM] | GI50 [4] | GI50 [5] | GI50 [6] | GI50 [7] | GI50 [8] | GI50 [9] | GI50 [10] | GI50 [11] | GI50 [12] | GI50 [13] | GI50 [14] | GI50 [15] | GI50 [16] | GI50 [17] | GI50 [18] |
| --- | --- | --- | --- | --- | --- | --- | --- | --- | --- | --- | --- | --- | --- | --- | --- | --- | --- | --- |
| COC(=O)C1=C(SC)SC2(C(=O)OC)C3C=C(C)C4C(N13)C42C(=O)OC (stereo not given) | > 100 µM (inactive) | > 100 µM (inactive) | > 100 | > 100 µM (inactive) | > 100 µM (inactive) | > 100 µM (inactive) | > 100 µM (inactive) | > 100 µM (inactive) | > 100 µM (inactive) | > 100 µM (inactive) | > 100 µM (inactive) | > 100 µM (inactive) | > 100 µM (inactive) | > 100 µM (inactive) | > 100 µM (inactive) | – | – | – |
| O=C1O/C(=C(/c2ccc(Cl)cc2)c2nc3ccccc3[nH]2)C(O)=C1c1ccc(Cl)cc1 | 4.06 µM (inactive) | 1.38 µM (inactive) | – | 2.83 µM (inactive) | 2.46 µM (inactive) | 1.93 µM (inactive) | 2.1 µM (inactive) | 2.93 µM (inactive) | 2.23 µM (inactive) | 2 µM (inactive) | 2.65 µM (inactive) | 2.51 µM (inactive) | 2.28 µM (inactive) | 2.73 µM (inactive) | 5.3 µM (inactive) | 2.47 µM (inactive) | 2.4 µM (inactive) | 1.32 µM (inactive) |
| Cc1c2[nH]c3ccc(Br)cc3c2c(C)c2nccc(O)c12 | 12.8 µM (inactive) | 16 µM (inactive) | 15.1 | 16.2 µM (inactive) | 14.8 µM (inactive) | 13.8 µM (inactive) | 16.6 µM (inactive) | 14.5 µM (inactive) | 13.8 µM (inactive) | 13 µM (inactive) | 15.6 µM (inactive) | 10.1 µM (inactive) | 14.3 µM (inactive) | 6.9 µM (inactive) | – | – | 16.3 µM (inactive) | – |
| COc1cc2c(cc1OC)C(C#N)(Cc1ccccc1)N(C(=O)c1ccccc1)C=C2 (stereo not given) | > 100 µM (inactive) | 75.7 µM (inactive) | 38.8 | > 100 µM (inactive) | > 100 µM (inactive) | 50.9 µM (inactive) | 63 µM (inactive) | > 100 µM (inactive) | – | > 100 µM (inactive) | > 100 µM (inactive) | 82.8 µM (inactive) | 35.5 µM (inactive) | 46.3 µM (inactive) | > 100 µM (inactive) | – | – | 58.2 µM (inactive) |
| COC1=CC(O)(CC(N)=O)c2ccccc2C1=O (stereo not given) | > 100 µM (inactive) | – | > 100 | > 100 µM (inactive) | > 100 µM (inactive) | > 100 µM (inactive) | > 100 µM (inactive) | > 100 µM (inactive) | > 100 µM (inactive) | > 100 µM (inactive) | – | > 100 µM (inactive) | > 100 µM (inactive) | > 100 µM (inactive) | > 100 µM (inactive) | > 100 µM (inactive) | > 100 µM (inactive) | > 100 µM (inactive) |
| CC(=O)O[C@H]1CCC2[C@@H]3CCC4C(=O)c5oncc5C[C@]4(C)C3CC[C@@]21C (stereo not given in full) | > 100 µM (inactive) | > 100 µM (inactive) | > 100 | > 100 µM (inactive) | > 100 µM (inactive) | > 10 µM (inactive) | > 10 µM (inactive) | > 10 µM (inactive) | – | > 100 µM (inactive) | > 10 µM (inactive) | 63 µM (inactive) | > 100 µM (inactive) | > 100 µM (inactive) | > 100 µM (inactive) | 21.7 µM (inactive) | 5.21 µM (inactive) | > 100 µM (inactive) |
| CCOC(=O)Nc1ccc(S(=O)(=O)I)cc1.CCOC(=O)Nc1ccc(S(=O)(=O)I)cc1.CNC(=O)N=O.NC(=O)OCCCl | > 100 µM (inactive) | > 100 µM (inactive) | 70.8 | > 100 µM (inactive) | > 100 µM (inactive) | > 100 µM (inactive) | – | > 100 µM (inactive) | > 100 µM (inactive) | 49.8 µM (inactive) | > 100 µM (inactive) | > 100 µM (inactive) | – | > 100 µM (inactive) | > 100 µM (inactive) | > 100 µM (inactive) | – | 40.5 µM (inactive) |
| COc1cc(/C=C2/C(=O)N(C(=O)OCc3ccccc3)C(Cc3cc(OC)c(OC)c(C)c3OC)C(=O)N2Cc2ccccc2)c(OC)c(C)c1OC (stereo not given) | > 100 µM (inactive) | > 100 µM (inactive) | – | > 100 µM (inactive) | > 100 µM (inactive) | 29.3 µM (inactive) | 2 µM (inactive) | > 100 µM (inactive) | > 100 µM (inactive) | 76.4 µM (inactive) | > 100 µM (inactive) | > 100 µM (inactive) | 20.9 µM (inactive) | 3.52 µM (inactive) | > 100 µM (inactive) | 88.7 µM (inactive) | > 100 µM (inactive) | 2.64 µM (inactive) |
| COc1cc2c(c(OC)c1OC)-c1[nH]ncc1CC2 | > 100 µM (inactive) | > 100 µM (inactive) | > 100 | > 100 µM (inactive) | > 100 µM (inactive) | > 100 µM (inactive) | > 100 µM (inactive) | > 100 µM (inactive) | 60.7 µM (inactive) | > 100 µM (inactive) | > 100 µM (inactive) | > 100 µM (inactive) | – | > 100 µM (inactive) | > 100 µM (inactive) | > 100 µM (inactive) | – | > 100 µM (inactive) |
| C/C(C=O)=C1\C(O)C[C@]1(C)C1CC(C)(C)CC1O (stereo not given in full) | 47.3 µM (inactive) | > 100 µM (inactive) | – | > 100 µM (inactive) | > 100 µM (inactive) | 72.9 µM (inactive) | > 100 µM (inactive) | > 100 µM (inactive) | > 100 µM (inactive) | > 100 µM (inactive) | 49.1 µM (inactive) | > 100 µM (inactive) | 42.3 µM (inactive) | > 100 µM (inactive) | – | > 100 µM (inactive) | 35.7 µM (inactive) | 74.1 µM (inactive) |
| C/C(CC(=O)NCCc1ccccc1)=N\NS(=O)(=O)c1ccc(C)cc1 | > 100 µM (inactive) | > 100 µM (inactive) | – | > 100 µM (inactive) | > 100 µM (inactive) | > 100 µM (inactive) | > 100 µM (inactive) | – | – | > 100 µM (inactive) | > 100 µM (inactive) | > 100 µM (inactive) | > 100 µM (inactive) | > 100 µM (inactive) | > 100 µM (inactive) | > 100 µM (inactive) | – | > 100 µM (inactive) |
| C=C(CCCO)[C@@H]1CC[C@@](C)(O)[C@H]1C | – | > 100 µM (inactive) | > 100 | > 100 µM (inactive) | – | > 100 µM (inactive) | > 100 µM (inactive) | > 100 µM (inactive) | > 100 µM (inactive) | > 100 µM (inactive) | > 100 µM (inactive) | > 100 µM (inactive) | > 100 µM (inactive) | > 100 µM (inactive) | > 100 µM (inactive) | – | > 100 µM (inactive) | – |
| CN(C)c1ccc(N=O)c(O)c1.CN(C)c1ccc(N=O)c(O)c1.[SiH4] | 11.7 µM (inactive) | 10.1 µM (inactive) | – | 15.4 µM (inactive) | 6.98 µM (inactive) | 6.5 µM (inactive) | 16.4 µM (inactive) | 17.3 µM (inactive) | 8.55 µM (inactive) | 14.1 µM (inactive) | 14.2 µM (inactive) | 2.67 µM (inactive) | 31.6 µM (inactive) | – | 20.9 µM (inactive) | 21.3 µM (inactive) | 12.7 µM (inactive) | 3.82 µM (inactive) |
| O=C(/C=C/c1ccccc1F)C(c1ccccc1)c1ccccc1 | 2.62 µM (inactive) | 4.22 µM (inactive) | 4.31 | – | 3.11 µM (inactive) | 2.24 µM (inactive) | 11.4 µM (inactive) | 2.14 µM (inactive) | 5.36 µM (inactive) | 10.8 µM (inactive) | 2.2 µM (inactive) | 2.56 µM (inactive) | 3.53 µM (inactive) | – | 10.8 µM (inactive) | – | – | 2 µM (inactive) |
| O=C(c1ccccc1)[C@@H]1C[C@H](Sc2ccccc2)c2cc(Cl)ccc2N1 | 28.2 µM (inactive) | 20.2 µM (inactive) | 25.4 | 20.5 µM (inactive) | 19 µM (inactive) | 23.1 µM (inactive) | 25.6 µM (inactive) | 43.3 µM (inactive) | 42.2 µM (inactive) | 32.4 µM (inactive) | 16.9 µM (inactive) | 29.2 µM (inactive) | 23.7 µM (inactive) | 26.5 µM (inactive) | 32.3 µM (inactive) | 11.5 µM (inactive) | 37.5 µM (inactive) | – |
| O=C(CCC(=O)Nc1ccc(Cl)c(Cl)c1)CC(=O)c1ccc(Br)cc1 | > 100 µM (inactive) | > 100 µM (inactive) | 40.5 | – | > 100 µM (inactive) | > 100 µM (inactive) | > 100 µM (inactive) | > 100 µM (inactive) | > 100 µM (inactive) | > 100 µM (inactive) | > 100 µM (inactive) | 71.8 µM (inactive) | > 100 µM (inactive) | – | > 100 µM (inactive) | > 100 µM (inactive) | > 100 µM (inactive) | > 100 µM (inactive) |
| COc1cc(/C=C2\C(=O)N(C(=O)Cc3ccccc3)N=C2C)cc(OC)c1OC | > 100 µM (inactive) | > 100 µM (inactive) | > 100 | > 100 µM (inactive) | > 100 µM (inactive) | > 100 µM (inactive) | > 100 µM (inactive) | > 100 µM (inactive) | > 100 µM (inactive) | > 100 µM (inactive) | > 100 µM (inactive) | > 100 µM (inactive) | > 100 µM (inactive) | > 100 µM (inactive) | – | – | > 100 µM (inactive) | – |
